# Experiments:
# [1] = test system: Cysteinyl leukotriene receptor (Cavia porcellus); assay: In vitro ability to antagonize a leukotriene D4 induced contraction of guinea pig trachea.
# [2] = biological target: Cysteinyl leukotriene receptor (Cavia porcellus); assay: Compound is evaluated for its ability to inhibit [3H]LTD4 binding to Cysteinyl leukotriene D4 receptor in guinea pig lung membranes
-Log KB [1],Ki [2],SMILES
6.6,3149 nM,CCCc1c(OCCCCCOc2ccccc2C(SCCC(=O)O)SCCC(=O)O)ccc(C(C)=O)c1O
6.2,187 nM,CCCCC/C=C/C/C=C/COc1cccc(C(SCCC(=O)O)SCCC(=O)O)c1
,401 nM,CCCCCCCCCCCCc1ccccc1C1S[C@@H](C(=O)O)[C@H](C(=O)O)S1
,17578 nM,CCCCCCCCCCCCc1ccccc1C1S[C@H](C(=O)O)[C@H](C(=O)O)S1 (stereo in doubt; 61)
7,476 nM,O=C(O)CCSC(SCCC(=O)O)c1cc(C(F)(F)F)ccc1CCCCCCCCc1ccccc1
5.9,579 nM,CCCCCCCCCCCOc1ccc(OC)cc1C(SCCC(=O)O)SCCC(=O)O
,530 nM,CCCCCCCCCCCCCOc1cccc(C(SCCC(=O)O)SCCC(=O)O)c1
5.6,> 20000 nM,CCCCCCCCCCCOc1ccccc1C(C)(SCCC(=O)O)SCCC(=O)O
6.1,,CCCCCCCCCCC#CC(SCCC(=O)O)SCCC(=O)O
6,430 nM,O=C(O)CCSC(SCCC(=O)O)c1cccc(CCCCCCCCc2ccccc2)c1
5.6,,CCCCCCCCCCC#CC(SCCCC(=O)O)SCCCC(=O)O
6.1,303 nM,CCCCCCCCCCCOc1ccc([N+](=O)[O-])cc1C(SCCC(=O)O)SCCC(=O)O
6.8,141 nM,C#CCCCCCCCCCCc1ccccc1C(SCCC(=O)O)SCCC(=O)O
6.5,1180 nM,CCCCCCCCCCc1ccccc1C(SCCC(=O)O)SCCC(=O)O
5.9,2515 nM,CCCCCCCCCCC#Cc1ccccc1C(SCCC(=O)O)SCCC(=O)O
,2092 nM,CCCCCCCCCCC[C@@H]1CC(SCCC(=O)O)(SCCC(=O)O)c2ccccc21
,1009 nM,O=C(O)CCSC(SCCC(=O)O)c1ccccc1OCCCC1CCCCC1
6,156 nM,CCCCCCCCCCCOc1ccc(O)cc1C(SCCC(=O)O)SCCC(=O)O
6.4,287 nM,CCCCCCCCCCCOc1ccccc1C(SCCC(=O)O)SCCC(=O)O
,3672 nM,CCCCCCCCCCCCc1cccc(C)c1C(SCCC(=O)O)SCCC(=O)O
6,445 nM,CCCCCCCCCCCCc1ccccc1C(SCCC(=O)O)SCCC(=O)O
6,624 nM,CCCCCCCCCCCOc1ccc(Br)cc1C(SCCC(=O)O)SCCC(=O)O
5.5,1958 nM,O=C(O)CCSC(SCCC(=O)O)c1ccccc1CCCCCCCCC1CCCCC1
,7565 nM,CCCCCCCCCCc1ccc(C(SCCC(=O)O)SCCC(=O)O)cc1
6,646 nM,CCCCCCCCCCCSc1ccccc1C(SCCC(=O)O)SCCC(=O)O

-Log KB [1],Ki [2],SMILES
,2337 nM,CCCCCCCCCCCCc1ccccc1C(CCCC(=O)O)CCCC(=O)O
5.2,,CCCCCCCCCCCCC(SCCC(=O)O)SCCC(=O)O
5.6,4228 nM,CCCCc1ccc(CCCCc2ccccc2C(SCCC(=O)O)SCCC(=O)O)cc1
,> 20000 nM,O=C(O)CCSC(SCCC(=O)O)c1ccccc1OCCCCCCCCCO
5.8,4094 nM,CCCCCCCCCOc1ccccc1C(SCCC(=O)O)SCCC(=O)O
,934 nM,CCCCCCCCCCCCc1ccccc1C(SCCCC(=O)O)SCCCC(=O)O
5.8,491 nM,CCCCCCCCCC/C=C/c1ccccc1C(SCCC(=O)O)SCCC(=O)O
,1246 nM,CCCCCCCCCCCCCCc1ccccc1C(SCCC(=O)O)SCCC(=O)O
5.8,423 nM,CCCCCCCCCCCCc1ccccc1C(SCCC(=O)O)[S+]([O-])CCC(=O)O (configuration not stated)
5.2,5674 nM,CCCCCCCCc1ccccc1C(SCCC(=O)O)SCCC(=O)O
5.9,846 nM,CCCCCCCCCCCCc1ccccc1C(SCC(=O)O)SCC(=O)O
,> 20000 nM,CCCCc1ccccc1C(SCCC(=O)O)SCCC(=O)O
,> 20000 nM,CCCCCCCCCCC[C@@H]1CCC(SCCC(=O)O)(SCCC(=O)O)c2ccccc21
,1380 nM,CCCCCCCCCC/C=C\c1ccccc1C(SCCC(=O)O)SCCC(=O)O
6.1,78 nM,CCCCCCCCCCCOc1cccc(C(SCCC(=O)O)SCCC(=O)O)c1
6.2,147 nM,O=C(O)CCSC(SCCC(=O)O)c1ccccc1CCCCCCCCCCCC(F)(F)F
5.3,11526 nM,O=C(O)CCSC(SCCC(=O)O)c1ccccc1OCCCCCCc1ccccc1
,> 20000 nM,CCCCCCCCCCCCCOc1ccc(C(SCCC(=O)O)SCCC(=O)O)cc1
5.3,,CCCCCCCCCCC#CC(SCC(=O)O)SCC(=O)O
5.7,,CCCCCCCCCCCCC#CC(SCCC(=O)O)SCCC(=O)O
,> 20000 nM,CCCCCCCCCCCOc1ccc(C(SCCC(=O)O)SCCC(=O)O)cc1
6,624 nM,CCCCCCCCCOc1cccc(C(SCCC(=O)O)SCCC(=O)O)c1
5,,CCCCCCCCC#CC(SCCC(=O)O)SCCC(=O)O
6,1002 nM,CCCCC/C=C/C/C=C/COc1ccccc1C(SCCC(=O)O)SCCC(=O)O
,> 20000 nM,CCOCCOCCOCCOc1ccccc1C(SCCC(=O)O)SCCC(=O)O

# Reference: ChEMBL document CHEMBL1123338, “Synthesis and structure-activity relationship studies of a series of 5-aryl-4,6-dithianonanedioic acids and related compounds: a novel class of leukotriene antagonists” (J Med Chem, 1986)
